Test results reported in ChEMBL document CHEMBL1201861, “Genomics of Drug Sensitity in Cancer screening data, Wellcome Trust Sanger Institute”.

Experiments:
[1] = tested on: NCI-H2196; assay: cells; format: functional, cell-based, Homo sapiens; conditions: Homo sapiens, NCI-H2196; read-out: IC50;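 also: cell viability assay used as the readout of growth inhibition in NCI-H2196 cells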
Description: SANGER: Inhibition of human NCI-H2196 cell growth in a cell viability assay.

[2] = tested on: WSU-NHL; assay: cells; format: functional, cell-based, Homo sapiens; conditions: Homo sapiens, WSU-NHL;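 also: growth inhibition of human WSU-NHL cells, read out with a cell viability assay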
Description: SANGER: Inhibition of human WSU-NHL cell growth in a cell viability assay.

[3] = tested on: CPC-N; assay: cells; format: functional, cell-based, Homo sapiens; conditions: Homo sapiens, CPC-N;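 also: growth inhibition of CPC-N cells, with a cell viability assay as the readout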
Description: SANGER: Inhibition of human CPC-N cell growth in a cell viability assay.

[4] = tested on: SCC-3; assay: cells; format: functional, cell-based, Homo sapiens; conditions: Homo sapiens, SCC-3;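 also: cell viability assay measuring inhibition of SCC-3 cell growth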
Description: SANGER: Inhibition of human SCC-3 cell growth in a cell viability assay.

[5] = tested on: DMS-79; assay: cells; format: functional, cell-based, Homo sapiens; conditions: Homo sapiens, DMS-79
Description: SANGER: Inhibition of human DMS-79 cell growth in a cell viability assay.

[6] = tested on: LC-1F; assay: cells; format: functional, cell-based, Homo sapiens; conditions: Homo sapiens, LC-1F;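 also: growth inhibition of human LC-1F cells, read out with a cell viability assay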
Description: SANGER: Inhibition of human LC-1F cell growth in a cell viability assay.

[7] = tested on: MFH-ino; assay: cells; format: functional, cell-based, Homo sapiens; conditions: Homo sapiens, MFH-ino;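 also: growth inhibition of human MFH-ino cells, read out by a cell viability assay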
Description: SANGER: Inhibition of human MFH-ino cell growth in a cell viability assay.

[8] = tested on: COR-L279; assay: SANGER: Inhibition of human COR-L279 cell growth in a cell viability assay.; format: functional, cell-based; conditions: Homo sapiens, COR-L279
[9] = tested on: NCI-H1417; assay: cells; format: functional, cell-based, Homo sapiens; conditions: Homo sapiens, NCI-H1417;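 also: human NCI-H1417 cells, growth inhibition determined with a cell viability readout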
Description: SANGER: Inhibition of human NCI-H1417 cell growth in a cell viability assay.

[10] = tested on: SK-MM-2; assay: cells; format: functional, cell-based, Homo sapiens; conditions: Homo sapiens, SK-MM-2;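 also: growth inhibition of human SK-MM-2 cells, read out with a cell viability assay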
Description: SANGER: Inhibition of human SK-MM-2 cell growth in a cell viability assay.

[11] = tested on: NCI-H1882; assay: cells; format: functional, cell-based, Homo sapiens; conditions: Homo sapiens, NCI-H1882;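 also: growth inhibition of the cell line, determined with a viability assay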
Description: SANGER: Inhibition of human NCI-H1882 cell growth in a cell viability assay.

[12] = tested on: DG-75; assay: cells; format: functional, cell-based, Homo sapiens; conditions: Homo sapiens, DG-75;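 also: growth inhibition of DG-75 cells, read out with a cell viability assay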
Description: SANGER: Inhibition of human DG-75 cell growth in a cell viability assay.

[13] = tested on: MONO-MAC-6; assay: cells; format: functional, cell-based, Homo sapiens; conditions: Homo sapiens, MONO-MAC-6;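 also: cell viability assay measuring growth inhibition of human MONO-MAC-6 cells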
Description: SANGER: Inhibition of human MONO-MAC-6 cell growth in a cell viability assay.

[14] = tested on: IST-SL2; assay: cells; format: functional, cell-based, Homo sapiens; conditions: Homo sapiens, IST-SL2;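 also: growth inhibition of human IST-SL2 cells, read out by a cell viability assay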
Description: SANGER: Inhibition of human IST-SL2 cell growth in a cell viability assay.

[15] = tested on: EB2; assay: cells; format: functional, cell-based, Homo sapiens; conditions: Homo sapiens, EB2;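 also: growth inhibition of EB2 cells, read out with a cell viability assay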
Description: SANGER: Inhibition of human EB2 cell growth in a cell viability assay.

[16] = tested on: YT; assay: cells; format: functional, cell-based, Homo sapiens; conditions: Homo sapiens, YT
Description: SANGER: Inhibition of human YT cell growth in a cell viability assay.

Compound | IC50 [1] | IC50 [2] | IC50 [3] | IC50 [4] | IC50 [5] | IC50 [6] | IC50 [7] | IC50 [8] | IC50 [9] | IC50 [10] | IC50 [11] | IC50 [12] | IC50 [13] | IC50 [14] | IC50 [15] | IC50 [16]
C=CC(=O)N1CCCC(Nc2nc(Nc3ccc(N(C)C(=O)CC)cc3)nc3[nH]cnc23)C1 (centres undefined) | > 10.2 µM | > 10.2 µM | > 10.2 µM | > 10.2 µM | > 10.2 µM | > 10.2 µM | > 10.2 µM | > 10.2 µM | > 10.2 µM | > 10.2 µM | > 10.2 µM | > 10.2 µM | > 10.2 µM | > 10.2 µM | > 10.2 µM | > 10.2 µM
COc1ccc(N(C(=O)Oc2c(C)cccc2C)c2ccnc(Nc3ccc(N4CCN(C)CC4)cc3)n2)c(OC)c1 | > 5.12 µM | > 5.12 µM | > 5.12 µM | > 5.12 µM | > 5.12 µM | > 5.12 µM | 0.239 µM | > 5.12 µM | > 5.12 µM | > 5.12 µM | > 5.12 µM | > 5.12 µM | > 5.12 µM | 1.47 µM | > 5.12 µM | > 5.12 µM
Cc1cc(N2CCOCC2)cc2[nH]c(-c3c(NC[C@@H](O)c4cccc(Cl)c4)cc[nH]c3=O)nc12 | > 5.12 µM | > 5.12 µM | 3.59 µM | > 5.12 µM | > 5.12 µM | > 5.12 µM | 0.344 µM | > 5.12 µM | > 5.12 µM | 0.63 µM | 0.956 µM | > 5.12 µM | 0.608 µM | > 5.12 µM | > 5.12 µM | > 5.12 µM
NC(=O)c1cccc(-c2cc(Nc3ccc(OC(F)(F)F)cc3)ncn2)c1 | > 1.28 µM | > 1.28 µM | > 1.28 µM | > 1.28 µM | > 1.28 µM | > 1.28 µM | > 1.28 µM | > 1.28 µM | > 1.28 µM | > 1.28 µM | > 1.28 µM | > 1.28 µM | > 1.28 µM | > 1.28 µM | > 1.28 µM | > 1.28 µM
